From patent publication US10834943B2, “Organic compounds having taste-modifying properties” (GIVAUDAN SA, priority 2013, dated 2020)

Assay: Mango-flavoured beverage evaluated by a panel of experienced tasters
Conditions: 0.5 ppm dosed to mango drink (mango flavour 0.05% w/w, mango juice 0.18% w/w, sugar 8% w/w, citric acid 0.1% w/w)
Method: A mango-flavoured beverage was prepared using a standard mango flavour (0.05% w/w), mango juice (0.18% w/w), sugar (8% w/w) and citric acid (0.1% w/w).

SMILES | taste of the mango drink versus the reference drink (panel agreement)
CCCCC/C=C\C/C=C\CCCCCCCC(=O)N1CCCC1C(=O)OC (centres unmarked) [Example 6, Methyl 1-((9Z,12Z)-octadeca-9,12-dienoyl)pyrrolidine-2-carboxylate] | more fruity and peach-like than the reference drink
CC/C=C\C/C=C\C/C=C\CCCCCCCC(=O)NC(C)C(=O)OC (centres unmarked) [Example 7, Methyl 2-((9Z,12Z,15Z)-octadeca-9,12,15-trienamido)propanoate] | more fully, more fatty than the reference drink
